Results on 1 substance are retold here after patent US20050054845A1, “Thymosin augmentation of genetic immunization” (Rhode Island Hospital, priority 2001, published 2005).

Ends that are not written are not given here.

The test system of one series is SP2—NS5 cells. Nature of the series: Cytotoxicity (CTL) 51Cr-release assay after genetic immunization. In kind it is in vivo, Balb/c mice. The settings on record: co-administration of 5 μg thymosin α1 i.p. twice/week with 50 μg pAp031NS5 DNA vs DNA alone; L/T ratios 1:10 and 1:100; 4-hour 51Cr-release; FIG. 4. The protocol:
(§1) To enhance the cellular uptake of plasmid DNA, the quadriceps muscle of Balb/c mice was injected at multiple sites with a total of 100 μL of 0.25% hupivacaine. Four days later, the plasmid constructs were injected into the same region at five different sites in a final volume of 100 μL 0.9% NaCl. Two weeks later the mice were boosted in the opposite leg with plasmid DNA. The mice were killed ten days after the last immunization. There were three groups of mice each containing five animals. Group 1=mice immunized with 100 μg mock DNA; Group 2=mice immunized with 50 μg pAp031NS5 and 50 μg mock DNA; Group 3=mice immunized with 50 μg pAp031 NS5 and 50 μg mock DNA, and received 5 μg thymosin α1 i.p. twice/week. Animals were immunized three times two weeks apart, and studies were performed ten days after the final immunization.
Spleen cells from immunized mice were suspended in complete DMEM containing 10% FCS and 50 μmol/L 2-mercaptoethanol; the cells were then analyzed for cytotoxic activity 5 days after in vitro stimulation. […] Percent cytotoxicity was calculated as: [formula] […] Total release represents the radioactivity released after total lysis of target cells with 5% TritonX-100. […]
Spontaneous release represents the radioactivity present in medium derived from target cells only. […]

In series [1] the test system is spleen cells stimulated with recombinant NS5. Nature of the series: T-cell proliferation assay after genetic immunization. Particulars: co-administration of 5 μg thymosin α1 i.p. twice/week with 50 μg pAp031NS5 DNA vs DNA alone; all three challenge concentrations; [3H]-thymidine incorporation; FIG. 3. Type of series: in vivo, Balb/c mice. The protocol: as §1
Mice were anesthetized with isoflurane (Aerrane, Anaquest, N.J.), blood was removed by retrobulbar puncture and spleen cells were harvested. Red blood cells were removed by incubation in […] NH4C1/0.17 mol/L Tris (pH 7.4) for 10 minutes at 37° C. […] The [^3H]-thymidine incorporation into DNA was measured after harvesting. […] Incorporation of radioactivity was corrected for background activity (Δ cpm). […]
A general note: Dividing cells build labelled thymidine or BrdU into new DNA.

For series [2] the following is noted: in vivo; cited from earlier work.

With “thymosin α1 (SDAAVDTSSEITTKDLKEKKEVVEEAEN; ends and bridges not checked; UniProt P06454 2-29, looked up) [α thymosin]”, the “increase of percent cytotoxicity” value in the series with SP2—NS5 cells was no less than 100%. In addition, the “increase of CD4 proliferative response” value in series [1] is “approximately 100%”. Moreover, the “dose found to be safe for humans” value in series [2] is no more than 16 mg/kg body weight/day.
